Data on 1 compound can be found in PMC8475189, “The CopA2-Type P1B-Type ATPase CcoI Serves as Central Hub for cbb3-Type Cytochrome Oxidase Biogenesis” (Frontiers in Microbiology, 2021).

The structures appear in SMILES notation.

The test has as its target T1, CcoI (Rhodobacter capsulatus, UniProt D5ARQ0).
T1 construct: full-length with C-terminal Myc-His tag (pBAD-ccoI-Myc/HisA), expressed in E. coli C43(DE3), purified in DDM, monomeric SEC peak; strain MT1131 is printed as wild type and as genomic template of the ccoI-senC fusion
T1 sequence (D5ARQ0 1-742): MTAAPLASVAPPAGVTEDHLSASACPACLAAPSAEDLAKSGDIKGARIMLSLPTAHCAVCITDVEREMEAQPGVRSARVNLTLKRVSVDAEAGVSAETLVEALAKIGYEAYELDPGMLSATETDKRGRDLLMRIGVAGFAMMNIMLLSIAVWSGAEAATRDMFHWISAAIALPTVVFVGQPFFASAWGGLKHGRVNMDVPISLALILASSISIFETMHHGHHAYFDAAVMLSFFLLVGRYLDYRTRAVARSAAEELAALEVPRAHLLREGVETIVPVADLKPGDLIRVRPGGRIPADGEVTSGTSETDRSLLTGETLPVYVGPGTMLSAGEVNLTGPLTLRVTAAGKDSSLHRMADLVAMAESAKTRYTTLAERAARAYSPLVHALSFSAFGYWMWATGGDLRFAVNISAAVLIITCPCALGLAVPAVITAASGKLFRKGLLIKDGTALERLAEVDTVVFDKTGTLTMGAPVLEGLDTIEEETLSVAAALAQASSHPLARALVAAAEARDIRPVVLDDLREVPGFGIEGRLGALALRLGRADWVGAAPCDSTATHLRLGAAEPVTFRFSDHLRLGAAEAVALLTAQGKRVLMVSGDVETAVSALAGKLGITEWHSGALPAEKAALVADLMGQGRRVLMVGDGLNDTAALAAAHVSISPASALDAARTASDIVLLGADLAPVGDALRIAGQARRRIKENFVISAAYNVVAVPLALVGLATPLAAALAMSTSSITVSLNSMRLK
Kind of test: […] phosphate release (charcoal, scintillation). It is filed as biochemical. The conditions noted are these: labelled compound; 10-100 µM ATP, 10 mM MgCl2, 50 mM Tris pH 7.5, 300 mM NaCl, 0.03% DDM, 35 °C; no added Cu.

`Nc1ncnc2c1ncn2[C@@H]1O[C@H](COP(=O)(O)OP(=O)(O)OP(=O)(O)O)[C@@H](O)[C@H]1O` [ATP]: the “33P phosphate release (charcoal, scintillation)” value is recorded as “ATPase activity of detergent-solubilized, purified CcoI”.
